One experiment deals with sunflower. In words: Test C pre-/postemergence herbicide test. As to conditions: Preemergence. In kind it is in vivo, Helianthus annuus. The source says: Seeds of plant species selected from blackgrass (Alopecurus myosuroides), ryegrass, Italian (Italian ryegrass, Lolium multiflorum), wheat (winter wheat, Triticum aestivum), galium (catchweed bedstraw, Galium aparine), corn (Zea mays), crabgrass, large (large crabgrass, Digitaria sanguinalis), foxtail, giant (giant foxtail, Setaria faberii), johnsongrass (Sorghum halepense), lambsquarters (Chenopodium album), morningglory (Ipomoea coccinea), nutsedge, yellow (yellow nutsedge, Cyperus esculentus), pigweed (Amaranthus retroflexus), ragweed (common ragweed, Ambrosia elatior), soybean (Glycine max), barnyardgrass (Echinochloa crus-galli), oilseed rape (Brassica napus), waterhemp (common waterhemp, Amaranthus rudis), kochia (Kochia scoparia), oat, wild (wild oat, Avena fatua), surinam grass (Brachiaria decumbens), foxtail, green (green foxtail, Setaria viridis), goosegrass (Eleusine indica), bromegrass, downy (downy bromegrass, Bromus tectorum), nightshade (eastern black nightshade, Solanum ptycanthum), cocklebur (common cocklebur, Xanthium strumarium), cupgrass, woolly (woolly cupgrass, Eriochloa villosa), bermudagrass (Cynodon dactylon), sunflower, (common oilseed sunflower, Helianthus annuus), Russian thistle (Salsola kali) and velvetleaf (Abutilon theophrasti) were planted into a blend of loam soil and sand and treated preemergence with test chemicals formulated in a non-phytotoxic solvent mixture which included a surfactant. At the same time, plants selected from these crop and weed species and also barley (winter barley, Hordeum vulgare), […]), chickweed (common chickweed, Stellaria media), deadnettle (henbit deadnettle, Lamium amplexicaule), and canarygrass (littleseed canarygrass, Phalaris minor) were planted in pots containing Redi-Earth® planting medium (Scotts Company, 14111 Scottslawn Road, Marysville, Ohio 43041) comprising spaghnum peat moss, vermiculite, wetting agent and starter nutrients and treated with postemergence applications of test chemicals formulated in the same manner. Plants ranged in height from 2 to 18 cm (1- to 4-leaf stage) for postemergence treatments. Treated plants and controls were maintained in a greenhouse for 13 to 15 days, after which time all species were compared to controls and visually evaluated. Plant response ratings, summarized in Table C, are based on a scale of 0 to 100 where 0 is no effect and 100 is complete control. A dash (-) response means no test result.

The next experiment relates to pigweed, palmer. In words: Test E preemergence herbicide test. More on the design: key: 0 = no effect, 100 = complete control. In kind it is in vivo, Amaranthus palmeri. In outline:
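Response is a 0–100 visual rating against controls (100 = complete control), taken 21 days after preemergence treatment of seeded silt loam soil held in a greenhouse.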

In the next experiment the test system is oilseed rape. In words: Test D pre-/postemergence herbicide test. In kind it is in vivo, Brassica napus. As to conditions: for Plant response rating: Postemergence, Oilseed Rape, scale 0 to 100; for Plant response rating, Oilseed Rape: Preemergence, scale 0 to 100 (0 no effect, 100 complete control). The source says: Seeds of plant species selected from bluegrass (annual bluegrass, Poa annua), blackgrass (Alopecurus myosuroides), canarygrass (littleseed canarygrass, Phalaris minor), chickweed (common chickweed, Stellaria media), galium (catchweed bedstraw, Galium aparine), bromegrass, downy (downy bromegrass, Bromus tectorum), field poppy (Papaver rhoeas), field violet (Viola arvensis), foxtail, green (green foxtail, Setaria viridis), deadnettle (henbit deadnettle, Lamium amplexicaule), ryegrass, Italian (Italian ryegrass, Lolium multiflorum), kochia (Kochia scoparia), lambsquarters (Chenopodium album), oilseed rape (Brassica napus), pigweed (Amaranthus retroflexus), chamomile (scentless chamomile, Matricaria inodora), Russian thistle (Salsola kali), speedwell (bird's-eye speedwell, Veronica persica), barley, spring (spring barley, Hordeum vulgare), wheat, spring (spring wheat, Triticum aestivum), buckwheat, wild (wild buckwheat, Polygonum convolvulus), mustard, wild (wild mustard, Sinapis arvensis), oat, wild (wild oat, Avena fatua), radish, wild (wild radish, Raphanus raphanistrum), […]), barley, winter (winter barley, Hordeum vulgare), and wheat, winter (winter wheat, Triticum aestivum) were planted into a silt loam soil and treated preemergence with test chemicals formulated in a non-phytotoxic solvent mixture which included a surfactant. At the same time, these species were planted in pots containing Redi-Earth® planting medium (Scotts Company, 14111 Scottslawn Road, Marysville, Ohio 43041) comprising spaghnum peat moss, vermiculite, wetting agent and starter nutrients and treated with postemergence applications of the test chemicals formulated in the same manner. Plants ranged in height from 2 to 18 cm (1- to 4-leaf stage). Treated plants and controls were maintained in a controlled growth environment for 7 to 21 days after which time all species were compared to controls and visually evaluated. Plant response ratings, summarized in Table D, are based on a scale of 0 to 100 where 0 is no effect and 100 is complete control. A dash (-) response means no test result.

The next experiment deals with pigweed. In words: Test D pre-/postemergence herbicide test. In kind it is in vivo, Amaranthus retroflexus. The note with it: for Plant response rating: Postemergence, Pigweed, scale 0 to 100; for Plant response rating, Pigweed: Preemergence, scale 0 to 100 (0 no effect, 100 complete control). In outline:
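Plants were maintained 7 to 21 days in a controlled environment after treatment and then scored visually against controls (0 no effect, 100 complete control). Seeds in silt loam received preemergence sprays, and 1- to 4-leaf plants received postemergence sprays, both formulated in non-phytotoxic solvent with surfactant.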

Setting [1] is: 125 g ai/ha, scale 0 to 100 (0 no effect, 100 complete control).

For `O=C1NCC(c2ccc(Cl)c(Cl)c2)C1C(=O)Nc1ccccc1F` (racemic) [Compound 14], the “Plant response rating, Sunflower” value is 0 with sunflower (62 g ai/ha, scale 0 to 100) and 0 in the experiment on sunflower (setting [1]). For the same molecule, the “Plant response rating, Pigweed, Palmer” value in the experiment with pigweed, palmer (16 g ai/ha) stood at 0; in the experiment on pigweed, palmer (31 g ai/ha), 0; in the experiment with pigweed, palmer (62 g ai/ha) it was 0; in the experiment on pigweed, palmer (125 g ai/ha), 0; with pigweed, palmer (250 g ai/ha), 0.

`O=C1NCCC1C(=O)N(c1ccc(F)c(F)c1)c1ccccc1F` (stereo not drawn) [Compound 5, N-(3,4-difluorophenyl)-N-(2-fluorophenyl)-2-oxo-3-pyrrolidinecarboxamide]: the “Plant response rating, Sunflower” value is reported as 0 in the experiment on sunflower (62 g ai/ha, scale 0 to 100) and 0 in the experiment on sunflower (setting [1]).

As for `O=C1NCC(c2ccc(F)c(F)c2)C1C(=O)Nc1cccc(F)c1F` (stereo not drawn) [Compound 17, N-(2,3-difluorophenyl)-4-(3,4-difluorophenyl)-2-oxo-3-pyrrolidinecarboxamide], the “Plant response rating, Sunflower” value is 10 in the experiment with sunflower (62 g ai/ha, scale 0 to 100) and 20 in the experiment with sunflower (setting [1]). The Plant response rating turned out to be 0 in the experiment with oilseed rape (16 g ai/ha); 0 in the experiment on oilseed rape (31 g ai/ha); 10 in the experiment on oilseed rape (62 g ai/ha); 20 in the experiment with oilseed rape (125 g ai/ha); 40 in the experiment with oilseed rape (250 g ai/ha); 0 in the experiment with pigweed (16 g ai/ha). The Plant response rating in the experiment on pigweed (31 g ai/ha) is recorded as 0; in the experiment with pigweed (62 g ai/ha), 40; with pigweed (125 g ai/ha) it was 50; with pigweed (250 g ai/ha), 50. Besides, the “Plant response rating, Pigweed, Palmer” value is 0 in the experiment with pigweed, palmer (16 g ai/ha); 0 with pigweed, palmer (31 g ai/ha); 0 with pigweed, palmer (62 g ai/ha); 0 with pigweed, palmer (125 g ai/ha); 0 with pigweed, palmer (250 g ai/ha).

On to `O=C1NCC(c2cc(F)c(F)c(F)c2)C1C(=O)Nc1cccc(F)c1F` (stereo not drawn) [Compound 48], for which the “Plant response rating, Sunflower” value was found to be 0 in the experiment on sunflower (62 g ai/ha, scale 0 to 100); 0 in the experiment with sunflower (setting [1]); 0 in the experiment with sunflower (16 g ai/ha, scale 0 to 100).

With `O=C1NCC(c2ccc(Cl)c(F)c2)C1C(=O)Nc1cccc(F)c1F` (stereo not drawn) [Compound 52], the “Plant response rating, Sunflower” value in the experiment on sunflower (62 g ai/ha, scale 0 to 100) is listed as 0; in the experiment on sunflower (setting [1]), 0. Further, the Plant response rating in the experiment with oilseed rape (16 g ai/ha) is 0; in the experiment on oilseed rape (31 g ai/ha), 0; in the experiment on oilseed rape (62 g ai/ha) it was 0; in the experiment with oilseed rape (125 g ai/ha), 10; in the experiment on oilseed rape (250 g ai/ha) it was 25; in the experiment with pigweed (16 g ai/ha), 0. Moreover, the Plant response rating is 0 with pigweed (31 g ai/ha), 0 with pigweed (62 g ai/ha), 30 in the experiment with pigweed (125 g ai/ha) and 40 in the experiment with pigweed (250 g ai/ha). The “Plant response rating, Oilseed Rape” value in the experiment on oilseed rape (62 g ai/ha) was 0; in the experiment on oilseed rape (125 g ai/ha) it was 10; with oilseed rape (16 g ai/ha) it was 0; with oilseed rape (31 g ai/ha), 0; in the experiment with oilseed rape (250 g ai/ha), 10. Besides, the “Plant response rating, Pigweed” value in the experiment with pigweed (62 g ai/ha) is reported as 10; in the experiment with pigweed (125 g ai/ha), 10; in the experiment with pigweed (16 g ai/ha) it was 0; in the experiment with pigweed (31 g ai/ha), 10; in the experiment on pigweed (250 g ai/ha), 15.

For the molecule `O=C1NCC(c2ccc(F)c(Cl)c2)C1C(=O)Nc1ccccc1F` (stereo not drawn) [Compound 60], the “Plant response rating, Sunflower” value with sunflower (62 g ai/ha, scale 0 to 100) turned out to be 0; in the experiment with sunflower (setting [1]), 0.

Turning to `O=C1NCC(c2cccc(OC(F)(F)F)c2)C1C(=O)Nc1ccccc1F` (stereo not drawn) [Compound 69], the “Sunflower plant response rating” value in the experiment on sunflower (31 g ai/ha, scale 0 to 100, 0 is no effect and 100 is complete control) is given as 10. Further, the “Plant response rating, Sunflower” value in the experiment on sunflower (62 g ai/ha, scale 0 to 100) turned out to be 10; in the experiment with sunflower (setting [1]), 10. For the same molecule, the “Plant response rating (scale of 0 to 100), Sunflower” value in the experiment with sunflower (250 g ai/ha) was determined as 15.

In the case of `O=C1NC[C@H](c2cccc(C(F)(F)F)c2)[C@H]1C(=O)Nc1cccc(F)c1F` [Compound 206], the “Plant response rating, Oilseed Rape” value in the experiment with oilseed rape (62 g ai/ha) is recorded as 0; with oilseed rape (125 g ai/ha), 0; in the experiment on oilseed rape (31 g ai/ha), 0; with oilseed rape (250 g ai/ha), 5. Besides, the “Plant response rating, Pigweed” value with pigweed (62 g ai/ha) was 20; in the experiment on pigweed (125 g ai/ha), 40; in the experiment on pigweed (31 g ai/ha), 5; in the experiment on pigweed (250 g ai/ha), 50. The “Plant response rating, Pigweed, Palmer” value stood at 0 with pigweed, palmer (31 g ai/ha); 0 in the experiment with pigweed, palmer (62 g ai/ha); 0 with pigweed, palmer (125 g ai/ha); 0 in the experiment with pigweed, palmer (250 g ai/ha).

Values taken from patent US10294202B2, “Pyrrolidinones as herbicides” (FMC Corporation, priority 2013, dated 2019).
